Assay results as given in patent publication EP1339725B1, “DNA METHYL TRANSFERASE INHIBITORS” (priority 2000, dated 2002).

Columns and labels:
[1] = target: Brucella abortus CcrM (Brucella abortus, UniProt Q2YMK2); assay type: biochemical
[2] = test system: Bacillus subtilis (ATCC #33234); experiment: Bacillus subtilis cell growth assay; assay type: cell-based; details: LB media without antibiotics, 37°C, growth monitored up to 7.5 hours
[3] = test system: Caulobacter crescentus (CB15N); experiment: Caulobacter crescentus cell growth assay; assay type: cell-based; details: PYE media with 200 µg/mL ampicillin, 30°C, growth monitored at 630 nm up to 22 hours

Sequence of Brucella abortus CcrM (Q2YMK2 whole entry, looked up): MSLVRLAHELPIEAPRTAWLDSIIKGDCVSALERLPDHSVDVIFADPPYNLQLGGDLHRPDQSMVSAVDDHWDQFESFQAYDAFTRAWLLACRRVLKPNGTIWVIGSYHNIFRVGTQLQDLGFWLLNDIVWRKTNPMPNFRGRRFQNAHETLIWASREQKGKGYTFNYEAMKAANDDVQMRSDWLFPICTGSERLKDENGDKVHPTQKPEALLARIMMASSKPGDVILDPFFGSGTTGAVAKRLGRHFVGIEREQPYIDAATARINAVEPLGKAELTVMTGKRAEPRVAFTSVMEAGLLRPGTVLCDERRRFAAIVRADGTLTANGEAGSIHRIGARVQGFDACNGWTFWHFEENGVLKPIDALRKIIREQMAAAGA

Row | Compound | % reaction Brucella abortus CcrM Activity [1] [%] | IC50 [2] [µM] | IC50 [3] [µM]
1 | Fc1ccc(B(Oc2cccc3cccnc23)c2ccc(F)cc2)cc1 [Compound 11ii, Di-(4-fluorophenyl)borinic acid 8-hydroxyquinoline ester] | 61 |  | 
2 | Clc1ccc(B(Oc2cccc3cccnc23)c2ccc(Cl)cc2)cc1 [Compound 11iii, Di-(4-chlorophenyl)borinic acid 8-hydroxyquinoline ester] | 61 |  | 
3 | c1cnc2c(OB(c3ccc4c(c3)OCO4)c3ccc4c(c3)OCO4)cccc2c1 [Compound 11vi, Di-(3,4-methylenedioxyphenyl)borinic acid 8-hydroxyquinoline ester] | 42 |  | 
4 | c1csc(B(Oc2cccc3cccnc23)c2cccs2)c1 [Compound 11viii, Di-(2-thienyl)borinic acid 8-hydroxyquinoline ester] | 74 |  | 
5 | Cc1ccc2cccc(OB(c3ccc(F)cc3)c3ccc(F)cc3)c2n1 [Compound 12ii, Di-(p-fluorophenyl)borinic acid 8-hydroxyquinaldine ester] | 17 |  | 
6 | Cc1ccc2cccc(OB(c3ccc(Cl)cc3)c3ccc(Cl)cc3)c2n1 [Compound 12iii, Di-(p-chlorophenyl)borinic acid 8-hydroxyquinaldine ester] | 40 |  | 
7 | COc1ccc(B(Oc2cccc3ccc(C)nc23)c2ccc(OC)cc2)cc1 [Compound 12vii, Di-(4-methoxyphenyl)borinic acid 8-hydroxyquinaldine ester] | 56 |  | 
8 | Fc1ccc(B(Oc2ccc(Cl)c3cccnc23)c2ccc(F)cc2)cc1 [Compound 13ii, Di-(p-fluorophenyl)borinic acid 5-chloro-8-hydroxyquinaline ester] | 55 |  | 
9 | Clc1ccc(B(Oc2ccc(Cl)c3cccnc23)c2ccc(Cl)cc2)cc1 [Compound 13iii, Di-(p-chlorophenyl)borinic acid 5-chloro-8-hydroxyquinaline ester] | 81 |  | 
10 | O=[N+]([O-])c1ccc(OB(c2ccc3c(c2)OCO3)c2ccc3c(c2)OCO3)c2ncccc12 [Compound 14vi, Di-(3,4-methylenedioxyphenyl)borinic acid 8-hydroxy-5-nitroquinoline ester] | 21 |  | 
11 | c1ccc(B(OCc2ccccn2)c2ccccc2)cc1 [Compound 16i, Diphenylborinic acid pyridine-2-methanol] | 93 |  | 
12 | c1ccc(B(OC[C@@H]2CCCN2)c2ccccc2)cc1 [Compound 18i, Diphenylborinic acid (S)-(+)-pyrrolidine-2-methanol] | 81 | > 100 | > 100
13 | NCCOB(c1ccc(F)cc1)c1ccc(F)cc1 [Compound 19ii, Di-(4-fluorophenyl)borinic acid ethanolamine ester] | 8 |  | 
14 | Diphenylborinic acid 2-amino-1-phenylpropanol [Compound 17i] | 114 | > 100 | > 100
